Source: publication PMC9197875 (Clinical cancer research : an official journal of the …, 2022)
Like-named read-outs stand apart in the source and are kept apart here.

Legend:
[1] = adults, cited from earlier work
[2] = Crenolanib and sorafenib pharmacokinetic studies in patients; format: in vivo, human; conditions: for AUC(0-t) / Cmax: human, serum, oral; for AUC(0-t): 150 mg/m2, Crenolanib AUC(0–8h)
[3] = Toxicity evaluation; format: in vivo, human; conditions: 200 mg/m^2 in 3 divided doses; no dose reduction required
[4] = NSG mice, cited from earlier work
[5] = test system: FLT3 ligand; conditions: baseline to day 7, single agent crenolanib
[6] = Plasma pharmacokinetics in mice, alone versus combination; format: in vivo; conditions: administered acutely or chronically
[7] = test system: FLT3-ITD-positive AML; format: in vivo, human; conditions: for % AML cells in marrow by flow cytometry, Day 8: after single agent crenolanib
[8] = test system: MOLM13 cells; conditions: gilteritinib alone, same preclinical model; cited from earlier work
[9] = test system: phospho-FLT3; conditions: leukemia samples, plasma inhibitory assay; cited from earlier work
[10] = after 1 week of combination with sorafenib, not significant
[11] = day 1, sorafenib 150 mg/m^2 qd cohort, N=3, median (range)
[12] = day 7, sorafenib 150 mg/m^2 qd cohort, N=3, median (range)
[13] = day 14, with sorafenib 150 mg/m^2 qd, N=3, median (range)
[14] = day 14, with sorafenib 200 mg/m^2 qd, N=6, median (range)

For `CC1(COc2ccc3c(c2)ncn3-c2ccc3cccc(N4CCC(N)CC4)c3n2)COC1` [crenolanib], the Cl/f ([1]; day 1) is listed as 33 L/h/m^2, the Cl/f ([1]; day 15) is listed as 34 L/h/m^2 and the “Decrease in median Cl/f, day 14 versus day 1” value [2, 10] is listed as 55%. For the same molecule, the “Decrease in median Cl/f, day 14 versus day 7” value [2, 10] was 50%, the “Crenolanib Cl/f” value ([2]; day 1, All Dose Levels, median (range)) was 45.0 L/h/m^2 and the “Crenolanib Cl/f” value ([2]; day 1, All Dose Levels, median (range), listed as Crenolanib) was 45.0 (5.4–1112.0) L/h/m^2. The “Crenolanib Cl/f” value [2, 11] was 51.7 (45.0–184.7) L/h/m^2, the “Crenolanib Cl/f” value ([2]; day 1, sorafenib 200 mg/m^2 qd cohort, N=6, median (range)) was 42.9 (5.4–1112.0) L/h/m^2 and the “Crenolanib Cl/f” value ([2]; day 7, All Dose Levels, median (range)) was 40.5 L/h/m^2. For the same molecule, the “Crenolanib Cl/f” value ([2]; day 7, All Dose Levels, median (range), listed as Crenolanib) was 40.5 (2.4–153.9) L/h/m^2, the “Crenolanib Cl/f” value [2, 12] was 63.3 (40.5–153.9) L/h/m^2 and the “Crenolanib Cl/f” value ([2]; day 7, sorafenib 200 mg/m^2 qd cohort, N=6, median (range)) was 22.9 (2.4–120.4) L/h/m^2. For the same molecule, the “Crenolanib Cl/f” value ([2]; day 14, All Dose Levels, with sorafenib, median (range)) was 20.3 L/h/m^2, the “Crenolanib Cl/f” value ([2]; day 14, All Dose Levels, with sorafenib, median (range), listed as Crenolanib) was 20.3 (2.6–162.3) L/h/m^2 and the “Crenolanib Cl/f” value [2, 13] was 62.4 (20.3–162.3) L/h/m^2. For the same molecule, the “Crenolanib Cmin” value [2, 13] was 64.5 (17.5–158.5) ng/mL, the “Crenolanib Cl/f” value [2, 14] was 16.6 (2.6–111.4) L/h/m^2 and the “Crenolanib Cmin” value [2, 14] was 229.9 (27.5–1179.0) ng/mL. It also gave an AUC(0-t) [2, 11] of 710 ng·h/mL, an AUC(0-t) [2, 12] of 1000 ng·h/mL and an AUC(0-t) [2, 13] of 1090 ng·h/mL. It also gave a Cmax ([2]; 150 mg/m2, Crenolanib Cmax, day 7, sorafenib 150 mg/m^2 qd cohort, N=3, median (range)) of 190 ng/mL, a Cmax ([2]; 150 mg/m2, Crenolanib Cmax, day 14, with sorafenib 150 mg/m^2 qd, N=3, median (range)) of 233 ng/mL and a Cmax ([2]; 200 mg/m^2, Crenolanib Cmax, day 1, crenolanib 200 mg/m^2 tid, sorafenib 150 mg/m^2 qd cohort, N=3, median (range)) of 135 ng/mL. For the same molecule, the “Decrease in median Cl/f, day 7 versus day 1” value ([2]; single agent crenolanib, not significant) was 10%, the Tolerability [3] was “well-tolerated” and the Maximum tolerated single-dose [4] was 15 mg/kg. For the same molecule, the Maximum tolerated schedule ([4]; twice daily for 5 days per week) was 15 mg/kg, the “Change in FLT3 ligand concentrations” value [5] was “Minimal changes” and the “Plasma exposure alone versus in combination” value [6] was “similar”. For the same molecule, the “% AML cells in marrow by flow cytometry, Day 8” value (“% AML cells in marrow” for short) ([7]; Patient 1, pre-treatment 26) was 8.5%, the “% AML cells in marrow” value ([7]; Patient 2, pre-treatment 72) was 15.6% and the “% AML cells in marrow” value ([7]; Patient 3, pre-treatment 56) was 48.41%. For the same molecule, the “% AML cells in marrow” value ([7]; Patient 4, pre-treatment 71) was 58.37%, the “% AML cells in marrow” value ([7]; Patient 5, pre-treatment 24) was 58.63% and the “% AML cells in marrow” value ([7]; Patient 6, pre-treatment 98) was 42.38%. The “% AML cells in marrow” value ([7]; Patient 7, pre-treatment 92) was 73.05%, the “% AML cells in marrow” value ([7]; Patient 8, pre-treatment 0, no marrow involvement) was 0% and the “% AML cells in marrow” value ([7]; Patient 9, pre-treatment 92) was 22%. The “Patients with decrease in bone marrow blast percentages” value ([7]; after 7 days of crenolanib treatment, evaluable patients) was 7 of 8 and the “Patients with decreases (1% or less) in peripheral blast percentages” value ([7]; day 8, among 7 patients with peripheral blasts) was 5.
For `CCc1nc(C(N)=O)c(Nc2ccc(N3CCC(N4CCN(C)CC4)CC3)c(OC)c2)nc1NC1CCOCC1` [gilteritinib], the Median survival [8] is given as 31 days.
With `CNC(=O)c1cc(Oc2ccc(NC(=O)Nc3ccc(Cl)c(C(F)(F)F)c3)cc2)ccn1` [sorafenib] the “Sorafenib Cmax” value ([2]; day 14, sorafenib 150 mg/m^2 qd with crenolanib 200 mg/m^2 tid, N=3, median (range)) was 4.2 (2.4–5.0) mg/L, the “Sorafenib Cmin” value ([2]; day 14, sorafenib 150 mg/m^2 qd with crenolanib, N=3, median (range)) was 3.1 (1.3–4.1) mg/L and the “Sorafenib Cmin” value ([2]; day 14, sorafenib 200 mg/m^2 qd with crenolanib, N=6, median (range)) was 1.1 (0.8–2.2) mg/L. For the same molecule, the “Concentration that inhibited phospho-FLT3” value [9] was 143 ng/mL and the “Plasma exposure alone versus in combination” value [6] was “similar”.
